Laboratory results taken from ChEMBL document CHEMBL1156829 (Proc Natl Acad Sci U S A, 2008).

Key:
[1] = tested on: Plasmodium falciparum; assay: NOVARTIS: Inhibition of Plasmodium falciparum 3D7 (drug-susceptible) proliferation in erythrocyte-based infection assay; assay type: functional, organism-based; details: Plasmodium falciparum, 3D7
[2] = tested on: Plasmodium falciparum; assay: NOVARTIS: Inhibition of Plasmodium falciparum W2 (drug-resistant) proliferation in erythrocyte-based infection assay; assay type: functional, organism-based; details: Plasmodium falciparum, W2; read-out: EC50
[3] = NOVARTIS: Cytotoxicity against human hepatocellular carcinoma cell line (Huh7); assay type: toxicity, cell-based, Huh-7; details: Huh7 cells (hepatocellular carcinoma cell line)

SMILES | EC50 [1] [nM] | EC50 [2] [nM] | CC50 [3] [nM]
COc1ccc(/C=C2/SC(=Nc3ccccc3)NC2=O)cc1 | 292 | 332 | > 100000
c1ccc(Nc2nc(-c3ccccn3)cs2)nc1 | 114 | 58.5 | 18600
CCC(c1nc2ccccc2c(=O)n1-c1ccccc1OC)N(CCc1ccccc1)C(=O)c1cccc(OC)c1 (configuration not stated) | 1080 | 31.1 | > 10000
CCOC(=O)c1c(CNc2ccncc2)n(C)c2cc(Br)c(OC(C)=O)cc12 | 257 | 310 | > 100000
CC(Cl)=CCc1c(C)nc2c(ccc3ccccc32)c1O | 230 | 299 | > 100000
COc1cc(OC)c(NC(=O)C2c3ccccc3C(=O)N(C)C2c2cccs2)cc1Cl (configuration not stated) | 320 | 310 | > 100000
CCc1c(C)c(C#N)c2nc3ccccc3n2c1NCc1ccco1 | 271 | 333 | > 100000
CN1CCc2c(sc3nc(SCc4ccc(F)cc4)n(-c4ccccc4)c(=O)c23)C1 | 498 | 320 | > 100000
O=C(NCc1nnc(SCC2CCCO2)n1Cc1ccccc1)c1cccc2ccccc12 (configuration not stated) | 1870 | < 26.5 | 8280
CCOC(=O)c1c(CC)nc(-c2ccccc2)nc1C(=O)N1CCC(C)CC1 | > 1250 | < 13 | 4060
Cc1nc(N2CCCCC2)c2c(C)c(C(=O)N3CCN(c4cccc(Cl)c4)CC3)sc2n1 | > 12500 | 319 | > 100000
CCc1ccc(NC(=O)c2ccc(F)c(S(=O)(=O)NC3CCCC(C)C3C)c2)cc1 (configuration not stated) | 1350 | 216 | 66000
CC1(CNCc2ccccc2O)C2CC3CC(C2)CC1C3 (configuration not stated) | 143 | 32.6 | > 10000
CCOC(=O)c1c(CNCCN(CC)CC)n(C)c2cc(Br)c(OC(C)=O)cc12 | 833 | 309 | > 100000
Cc1ccc(-c2cn3c([n+]2-c2ccccc2)SCC3)cc1 | 427 | 309 | > 100000
CC(C)CCN(CCC(C)C)CC(O)Cn1c2ccc(Br)cc2c2cc(Br)ccc21 (configuration not stated) | 1490 | 309 | > 100000
Cc1ccc2cc3c(N)c4c(C)ccc(C)c4nc3nc2c1 | 431 | 308 | > 100000
O=S(=O)(NCCNc1ncnc2scc(-c3ccccc3)c12)c1ccc(Cl)c(Cl)c1 | 290 | 307 | > 100000
CC1=C(C(=O)OC(C)C)C(c2ccc(F)cc2)C2=C(CC(c3ccc(Cl)cc3)CC2=O)N1 (configuration not stated) | 358 | 91.3 | 29700
COc1cc(NC(C)CCCN(Cc2ccc(Cl)cc2)C(=O)Nc2ccc(Cl)cc2Cl)c2ncccc2c1 (configuration not stated) | 416 | < 17.1 | 5600
COc1ccc(/C=C/c2ccc3ccccc3[n+]2C)cc1 | 133 | 30.4 | > 10000
COc1cc(OC)c(NC(=O)C2c3ccccc3C(=O)N(C)C2c2ccc(OC)c(OC)c2)cc1Cl (configuration not stated) | 983 | 328 | > 100000
COc1cc(C=C(C#N)c2nc3ccccc3[nH]2)ccc1OCc1ccc(C)cc1 | 684 | 328 | > 100000

SMILES | EC50 [1] [nM] | EC50 [2] [nM] | CC50 [3] [nM]
O=C(Nc1ccc2c(c1)OCO2)c1cc2cc(C3(O)CCN(CC4CCCCC4)CC3)ccc2o1 | 442 | 311 | > 100000
O=C(NC(=S)Nc1ccc(NC(=O)c2cccs2)cc1)c1ccco1 | 468 | 311 | > 100000
CCCNC1=C(N(C(C)=O)c2ccc(C)cc2)C(=O)c2ccccc2C1=O | 13 | 13.1 | 4330
Brc1ccc(-c2cn3c([n+]2-c2ccccc2)SCC3)cc1 | 335 | 303 | > 100000
COc1ccc(C2C(C(=O)Nc3cccc(OC)c3)c3ccccc3C(=O)N2C2CCCCC2)cc1 (configuration not stated) | 1110 | 332 | > 100000
COc1cccc(C(=O)Oc2ccccc2-c2nc3ccccn3c2NC(C)(C)CC(C)(C)C)c1 | 270 | 33 | > 10000
N#Cc1ccc(N2CCCN(C(=S)NC3CCCC3)CC2)nc1 | 650 | 330 | > 100000
CCOC(=O)C1=CN(c2cc(C)ccc2C)C=C(C(=O)OCC)C1c1ccccc1OCC | 264 | 328 | > 100000
Cc1onc(-c2ccccc2Cl)c1C(=O)Nc1cc(Cl)ccc1Cl | 369 | 330 | > 100000
Cc1ccc(NC(=O)c2ccc(NCCCN3CCC(C)CC3)c([N+](=O)[O-])c2)cc1F | 191 | 330 | > 100000
CC1CN(C(=O)C(Cl)(Cl)Cl)C(C)CN1C(=O)C(Cl)(Cl)Cl (configuration not stated) | 2050 | 302 | > 100000
Cc1nc2ncccn2c1-c1csc(Nc2ccccn2)n1 | 189 | 314 | > 100000
CCCCCSc1scc(-c2ccc(O)c(O)c2)[n+]1C | 254 | 313 | > 100000
O=C(NCc1n[nH]c(=S)n1-c1ccc(Br)cc1)c1cccc2ccccc12 | 293 | 301 | > 100000
Cc1cc(C)c2c(c1)OCN(Cc1ccccc1Cl)C2 | 192 | 300 | > 100000
COc1ccc(-c2nc(CN3CCCCC3)ccc2O)cc1 | 131 | 30 | > 10000
CC(C)(C)NCC(O)Cn1c2ccc(Cl)cc2c2cc(Cl)ccc21 (configuration not stated) | 258 | 56.3 | 18800
COc1cc(OC)c(N(C)C(=O)c2cc3c(s2)-c2ccccc2S(=O)(=O)C3)cc1Cl | 113 | 179 | > 55600
CCOc1ccc(C(=O)N2CCN(Cc3ccccc3)CC2)cc1 | > 3670 | 322 | > 100000
CCCC(=O)NC(c1cccc([N+](=O)[O-])c1)c1ccc2cccnc2c1O (configuration not stated) | 320 | 125 | 38800
CCCn1c(SCCNC(=O)/C=C/c2ccccc2)nc(-c2ccccc2)c1-c1ccccc1 | 557 | 29.7 | 9380
CC(=O)N(C1=C(N2CCCCCC2)C(=O)c2ccccc2C1=O)C1CCCCC1 | 137 | 93.9 | 30200
CCC(C(=O)NCc1ccc(OC)c(OC)c1)n1nc(C)c2c(C)n(-c3ccc(C)cc3)nc2c1=O (configuration not stated) | 273 | 299 | > 100000

SMILES | EC50 [1] [nM] | EC50 [2] [nM] | CC50 [3] [nM]
O=C(CSc1nc2cc3c(cc2c(=O)n1Cc1ccco1)OCO3)Nc1cc(C(F)(F)F)ccc1Cl | 247 | 326 | > 100000
COc1cccc(CNC(=O)[C@@H]2CNC[C@H]2c2ccc(C(F)(F)F)cc2)c1 | 108 | 77.5 | 23800
COc1ccc2c(Cl)c(C(=O)Nc3cc(C)on3)sc2c1Cl | 430 | 316 | > 100000
O=C(NNc1ccccc1F)c1c(F)cccc1Cl | > 1250 | < 31.6 | > 10000
O=C(COc1ccc(Cl)cc1)Nc1cccc(-c2nc3ncccc3o2)c1 | 1640 | 311 | > 100000
O=C(c1c2c(nc3ccccc13)CCC2)N1CCc2ccccc21 | 1940 | < 36.7 | > 11700
COC(=O)C1=C(C)N/C(=C\c2cc(C)n(-c3ccccc3C(F)(F)F)c2C)C1=O | 22.4 | 29.9 | > 10000
COc1ccc(C2=CC(=Cc3cccc(OC)c3OC)C(=O)O2)cc1OC | 4760 | 332 | > 100000
O=C(NC1CC1)C1CCN(c2cccc3c2C(=O)N(C2CCCCCCC2)C3=O)CC1 | 203 | 169 | > 51800
COC(=O)C1CCN(C(=O)COC(c2ccccc2)c2cccnc2Cl)CC1 (configuration not stated) | > 1250 | < 7.96 | > 2450
Cc1ccc(C[n+]2cc(-c3ccc(F)cc3)n3c2CCC3)cc1 | 867 | 321 | > 100000
COc1ccc(C2=C(c3ccc(OC)cc3)C3(c4ccccc4)C(=O)C2(c2ccccc2)C2C(=O)N(c4ccc(OC)cc4[N+](=O)[O-])C(=O)C23)cc1 (configuration not stated) | 353 | 316 | > 100000
Oc1nc(-c2ccccn2)nc(C(F)(F)F)c1Br | 490 | < 25.6 | > 8270
O=C1C(=O)N(Cc2ccccc2[N+](=O)[O-])c2ccccc21 | 710 | 326 | > 100000
Clc1ccc(-c2c[n+](CCc3ccccc3)c3n2CCC3)cc1 | 380 | 299 | > 100000
CCC(C(=O)Oc1ccccc1-c1nc2ccccn2c1NC(C)(C)CC(C)(C)C)c1ccccc1 (configuration not stated) | 685 | 32.9 | > 10000
COc1ccc(-n2nc([N+](=O)[O-])c(Nc3ccc([N+](=O)[O-])cc3C)[n+]2[O-])cc1 | 1300 | 320 | > 100000
Cc1cc2nc3ccc(N(C)C)cc3[n+](-c3ccccc3)c2cc1N | 156 | 31.2 | > 10000
COc1ccc(OC)c(C2CC(=O)C3=C(C2)NC(=O)CC3c2ccc([N+](=O)[O-])cc2)c1 (configuration not stated) | 262 | 229 | 72200
O=C1CC(c2ccccc2)CC2=C1C(c1cc(F)ccc1F)Nc1ccccc1N2 (configuration not stated) | 1020 | 310 | > 100000
O=C1[C@@H]2CCCN2C(=O)C(c2ccc(Oc3ccccc3)cc2)N1CCc1ccccn1 (some centres not stated) | > 1250 | < 30.4 | > 10000
CCCCCC1CCCc2c1[nH]c1cc(Cl)ccc1c2=O (configuration not stated) | 475 | 302 | > 100000
CC[n+]1c(C=C2C=C(C)CC(C)C2)sc2ccccc21 (configuration not stated) | 326 | 300 | > 100000
